In PubChem BioAssay (NCI):
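Dose response: 5 concentrations. Exposure: 48 h. Format: 96-well plates. Endpoint: linear interpolation; highest concentration if not reached. Definition used: TGI = concentration required for complete inhibition of growth.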

Tests used:
Test in all cases: NCI-60 cell line screen, 48 h
NCI-H522 lung = system: NCI-H522 lung
SR leukemia = system: SR leukemia
HCT-15 colon = system: HCT-15 colon
LOX IMVI melanoma = system: LOX IMVI melanoma
A498 renal = system: A498 renal
NCI-H23 lung = system: NCI-H23 lung
COLO 205 colon = system: COLO 205 colon
SW-620 colon = system: SW-620 colon
HOP-62 NSCLC = system: HOP-62 NSCLC
MDA-MB-231 breast = system: MDA-MB-231 breast
SN12C renal = system: SN12C renal
SF-268 CNS = system: SF-268 CNS
HCT-116 colon = system: HCT-116 colon
SK-MEL-5 melanoma = system: SK-MEL-5 melanoma
HL-60(TB) leukemia = system: HL-60(TB) leukemia
BT-549 breast = system: BT-549 breast
OVCAR-8 ovarian = system: OVCAR-8 ovarian
K-562 leukemia = system: K-562 leukemia
RPMI-8226 leukemia = system: RPMI-8226 leukemia
OVCAR-5 ovarian = system: OVCAR-5 ovarian
UACC-62 melanoma = system: UACC-62 melanoma
OVCAR-4 ovarian = system: OVCAR-4 ovarian
ACHN renal = system: ACHN renal
MDA-MB-435 = system: MDA-MB-435
KM12 colon = system: KM12 colon
SF-539 CNS = system: SF-539 CNS
PC-3 prostate = system: PC-3 prostate
MOLT-4 leukemia = system: MOLT-4 leukemia
TK-10 renal = system: TK-10 renal
IGROV1 ovarian = system: IGROV1 ovarian
MCF7 breast = system: MCF7 breast
HS 578T breast = system: HS 578T breast
OVCAR-3 ovarian = system: OVCAR-3 ovarian
A549 NSCLC = system: A549 NSCLC
UACC-257 melanoma = system: UACC-257 melanoma
T-47D breast = system: T-47D breast
SK-MEL-28 melanoma = system: SK-MEL-28 melanoma
RXF 393 renal = system: RXF 393 renal
EKVX NSCLC = system: EKVX NSCLC
MALME-3M melanoma = system: MALME-3M melanoma
SF-295 CNS = system: SF-295 CNS
CCRF-CEM leukemia = system: CCRF-CEM leukemia
786-0 renal = system: 786-0 renal
HCC-2998 colon = system: HCC-2998 colon
NCI-H460 lung = system: NCI-H460 lung
NCI/ADR-RES ovarian = system: NCI/ADR-RES ovarian
SK-OV-3 ovarian = system: SK-OV-3 ovarian
DU-145 prostate = system: DU-145 prostate
U251 CNS = system: U251 CNS

Measured: TGI

COC(=O)[C@@H](Cc1ccccc1)NNC(=O)OC(C)(C)C
> 100 µM: NCI-H522 lung | SR leukemia | HCT-15 colon | LOX IMVI melanoma | A498 renal | NCI-H23 lung | COLO 205 colon | SW-620 colon | HOP-62 NSCLC | MDA-MB-231 breast | SN12C renal | SF-268 CNS | HCT-116 colon | SK-MEL-5 melanoma | HL-60(TB) leukemia | BT-549 breast | OVCAR-8 ovarian | K-562 leukemia | RPMI-8226 leukemia | OVCAR-5 ovarian | UACC-62 melanoma | OVCAR-4 ovarian | ACHN renal | MDA-MB-435 | KM12 colon | SF-539 CNS | PC-3 prostate | MOLT-4 leukemia | TK-10 renal | IGROV1 ovarian | MCF7 breast | HS 578T breast | OVCAR-3 ovarian | A549 NSCLC | UACC-257 melanoma | T-47D breast | SK-MEL-28 melanoma | RXF 393 renal | EKVX NSCLC | MALME-3M melanoma | SF-295 CNS | CCRF-CEM leukemia | 786-0 renal | HCC-2998 colon | NCI-H460 lung | NCI/ADR-RES ovarian | SK-OV-3 ovarian | DU-145 prostate | U251 CNS
